Measurements published in US7772241B2, “Variolin derivatives and their use as antitumor agents” (Pharma Mar S.A., priority 2001, dated 2010).

What was measured:
[1] = system: K-562; test: Inhibition of cells growth by colorimetric (SRB) assay, K-562; conditions: for GI50 / CC50: Homo sapiens, K562, 48 h; for GI50: read-out: GI50 K-562, SRB assay, 48 hours exposure; for CC50: read-out: LC50 K-562, SRB assay, 48 hours exposure; for TGI K-562: SRB assay, 48 hours exposure
Procedure, shortened: (§1)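 Read-out is sulforhodamine B protein stain (OD 490 nm) after cold TCA fixation, following 48 h continuous exposure to samples spanning 10 to 10^−8 μg/ml.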

[2] = system: A-549; test: Inhibition of cells growth by colorimetric (SRB) assay, A-549; conditions: for GI50 / CC50: Homo sapiens, A549, 48 h; for GI50: read-out: GI50 A-549, SRB assay, 48 hours exposure; for CC50: read-out: LC50 A-549, SRB assay, 48 hours exposure; for TGI A-549: SRB assay, 48 hours exposure
Procedure, shortened: as §1

[3] = system: SK-MEL-28; test: Inhibition of cells growth by colorimetric (SRB) assay, SK-MEL-28; conditions: for GI50 / CC50: Homo sapiens, SK-MEL-28, 48 h; for GI50: read-out: GI50 MEL-28, SRB assay, 48 hours exposure; for CC50: read-out: LC50 MEL-28, SRB assay, 48 hours exposure; for TGI MEL-28: SRB assay, 48 hours exposure
Procedure, shortened: as §1

[4] = system: HT-29; test: Inhibition of cells growth by colorimetric (SRB) assay, HT-29; conditions: for GI50 / CC50: Homo sapiens, HT-29, 48 h; for GI50: read-out: GI50 HT-29, SRB assay, 48 hours exposure; for CC50: read-out: LC50 HT-29, SRB assay, 48 hours exposure; for TGI HT-29: SRB assay, 48 hours exposure
Procedure, shortened: as §1

[5] = system: LoVo; test: Inhibition of cells growth by colorimetric (SRB) assay, LoVo; conditions: for GI50 / CC50: Homo sapiens, LoVo, 48 h; for GI50: read-out: GI50 LOVO, SRB assay, 48 hours exposure; for CC50: read-out: LC50 LOVO, SRB assay, 48 hours exposure; for TGI LOVO: SRB assay, 48 hours exposure
Procedure, shortened: as §1

[6] = system: LoVo-Dox; test: Inhibition of cells growth by colorimetric (SRB) assay, LoVo-Dox; conditions: for GI50 / CC50: Homo sapiens, 48 h; for GI50: read-out: GI50 LOVO-DOX, SRB assay, 48 hours exposure; for CC50: read-out: LC50 LOVO-DOX, SRB assay, 48 hours exposure; for TGI LOVO-DOX: SRB assay, 48 hours exposure
Procedure, shortened: as §1

[7] = system: DU-145; test: Inhibition of cells growth by colorimetric (SRB) assay, DU-145; conditions: for GI50 / CC50: Homo sapiens, DU-145, 48 h; for GI50: read-out: GI50 DU-145, SRB assay, 48 hours exposure; for CC50: read-out: LC50 DU-145, SRB assay, 48 hours exposure; for TGI DU-145: SRB assay, 48 hours exposure
Procedure, shortened: as §1

[8] = system: LNCaP; test: Inhibition of cells growth by colorimetric (SRB) assay, LNCaP; conditions: for GI50 / CC50: Homo sapiens, LNCaP, 48 h; for GI50: read-out: GI50 LN-caP, SRB assay, 48 hours exposure; for CC50: read-out: LC50 LN-caP, SRB assay, 48 hours exposure; for TGI LN-caP: SRB assay, 48 hours exposure
Procedure, shortened: as §1

[9] = system: SK-BR-3; test: Inhibition of cells growth by colorimetric (SRB) assay, SK-BR-3; conditions: for GI50 / CC50: Homo sapiens, SK-BR-3, 48 h; for GI50: read-out: GI50 SK-BR-3, SRB assay, 48 hours exposure; for CC50: read-out: LC50 SK-BR-3, SRB assay, 48 hours exposure; for TGI SK-BR-3: SRB assay, 48 hours exposure
From the text: The finality of these assays is to interrupt the growth of a “in vitro” tumor cell culture by means a continued exhibition of the cells to the sample to be testing.
This form of the assay employs 96 well cell culture microplates of 9 mm diameter (Faircloth, 1988; Mosmann, 1983). Most of the cell lines are obtained from American Type Culture Collection (ATCC) derived from different human cancer types.
Cells are maintained in RPMI 1640 10% FBS, supplemented with 0.1 g/l penicillin and 0.1 g/l streptomycin sulphate and then incubated at 37° C., 5% CO2 and 98% humidity. For the experiments, cells were harvested from subconfluent cultures using trypsin and resuspended in fresh medium before plating.
Cells are seeded in 96 well microtiter plates, at 5×10^3 cells per well in aliquots of 195 μl medium, and they are allowed to attach to the plate surface by growing in drug free medium for 18 hours. Afterward, samples are added in aliquots of 5 μl in a ranging from 10 to 10^−8 μg/ml, dissolved in DMSO/EtOH/PBS (0.5:0.5:99). After 48 hours exposure, the antitumor effect are measured by the SRB methodology: cells are fixed by adding 50 μl of cold 50% (wt/vol) trichloroacetic acid (TCA) and incubating for 60 minutes at 4° C. Plates are washed with deionized water and dried. One hundred μl of SRB solution (0.4% wt/vol in 1% acetic acid) is added to each microtiter well and incubated for 10 minutes at room temperature. Unbound SRB is removed by washing with 1% acetic acid. Plates are air dried and bound stain is solubilized with Tris buffer. Optical densities are read on a automated spectrophotometric plate reader at a single wavelength of 490 nm.
The values for mean +/−SD of data from triplicate wells are calculated. Some parameters for cellular responses can be calculated: GI=growth inhibition, TGI=total growth inhibition (cytostatic effect) and LC=cell killing (cytotoxic effect).

[10] = system: IGROV-1; test: Inhibition of cells growth by colorimetric (SRB) assay, IGROV-1; conditions: for GI50 / CC50: Homo sapiens, IGROV-1, 48 h; for GI50: read-out: GI50 IGROV, SRB assay, 48 hours exposure; for CC50: read-out: LC50 IGROV, SRB assay, 48 hours exposure; for TGI IGROV: SRB assay, 48 hours exposure
Procedure, shortened: as §1

[11] = system: IGROV-ET; test: Inhibition of cells growth by colorimetric (SRB) assay, IGROV-ET; conditions: for GI50 / CC50: Homo sapiens, 48 h; for GI50: read-out: GI50 IGROV-ET, SRB assay, 48 hours exposure; for CC50: read-out: LC50 IGROV-ET, SRB assay, 48 hours exposure; for TGI IGROV-ET: SRB assay, 48 hours exposure
Procedure, shortened: as §1

[12] = system: SK-OV-3; test: Inhibition of cells growth by colorimetric (SRB) assay, SK-OV-3; conditions: for GI50 / CC50: Homo sapiens, SK-OV-3, 48 h; for GI50: read-out: GI50 SKOV-3, SRB assay, 48 hours exposure; for CC50: read-out: LC50 SKOV-3, SRB assay, 48 hours exposure; for TGI SKOV-3: SRB assay, 48 hours exposure
Procedure, shortened: as §1

[13] = system: PANC-1; test: Inhibition of cells growth by colorimetric (SRB) assay, PANC-1; conditions: for GI50 / CC50: Homo sapiens, PANC-1, 48 h; for GI50: read-out: GI50 PANC-1, SRB assay, 48 hours exposure; for CC50: read-out: LC50 PANC-1, SRB assay, 48 hours exposure; for TGI PANC-1: SRB assay, 48 hours exposure
Procedure, shortened: as §1

Compound | GI50 [1] [µM] | CC50 [1] [µM] | TGI K-562 [1] | GI50 [2] [µM] | CC50 [2] [µM] | TGI A-549 [2] | GI50 [3] [µM] | CC50 [3] [µM] | TGI MEL-28 [3] | GI50 [4] [µM] | CC50 [4] [µM] | TGI HT-29 [4] | GI50 [5] [µM] | CC50 [5] [µM] | TGI LOVO [5] | GI50 [6] [µM] | CC50 [6] [µM] | TGI LOVO-DOX [6] | GI50 [7] [µM] | CC50 [7] [µM] | other results
COc1ccc2nc3c(cc2c1)c(-c1ccnc(N)n1)c1ccnc(N)n13 [Compound 19b] | 8.48 | 28 | 1.59E−05 | 0.453 | 28 | 2.80E−05 | 4.92 | 28 | 1.65E−05 | 15.2 | 28 | 2.80E−05 | 3.25 | 28 | 1.97E−05 | 7.42 | 28 | 2.10E−05 | 5.79 | 28 | TGI DU-145 [7]: 2.39E−05; GI50 [8]: 2.36 µM; CC50 [8]: 27.6 µM; TGI LN-caP [8]: 8.59E−06; GI50 [9]: 1.89 µM; CC50 [9]: 28 µM; TGI SK-BR-3 [9]: 8.23E−06; GI50 [10]: 4.11 µM; CC50 [10]: 19.4 µM; TGI IGROV [10]: 8.93E−06; GI50 [11]: 3.27 µM; CC50 [11]: 20.4 µM; TGI IGROV-ET [11]: 8.17E−06; GI50 [12]: 8.28 µM; CC50 [12]: 28 µM; TGI SKOV-3 [12]: 1.89E−05; GI50 [13]: 8.87 µM; CC50 [13]: 28 µM; TGI PANC-1 [13]: 2.80E−05
COc1nccc(-c2c3c(O)ccnc3n3c(N)nccc23)n1 [Compound 105] | 12.8 | 32.4 | 2.93E−05 | 7.49 | 32.4 | 3.24E−05 | 13.8 | 32.4 | 3.24E−05 | 32.4 | 32.4 | 3.24E−05 | 14.3 | 32.4 | 3.24E−05 | 21.9 | 32.4 | 3.24E−05 | 14.2 | 32.4 | TGI DU-145 [7]: 3.24E−05; GI50 [8]: 5.48 µM; CC50 [8]: 32.4 µM; TGI LN-caP [8]: 1.75E−05; GI50 [9]: 2.42 µM; CC50 [9]: 32.4 µM; TGI SK-BR-3 [9]: 1.26E−05; GI50 [10]: 6.26 µM; CC50 [10]: 27.5 µM; TGI IGROV [10]: 1.31E−05; GI50 [11]: 8.17 µM; CC50 [11]: 32.4 µM; TGI IGROV-ET [11]: 2.23E−05; GI50 [12]: 8.14 µM; CC50 [12]: 32.4 µM; TGI SKOV-3 [12]: 2.91E−05; GI50 [13]: 11.8 µM; CC50 [13]: 32.4 µM; TGI PANC-1 [13]: 3.24E−05
